# Reference: US9738648B2, “Pyridines, pyrimidines, and pyrazines, as BTK inhibitors and uses thereof” (Merck Patent GmbH, priority 2013, dated 2017)
# Target: T1, full-length human BTK (Homo sapiens, UniProt Q06187)
# T1 construct: 2.5× stocks of full-length human BTK (08-080) from CarnaBio USA, Inc; purchased CarnaBio USA, Inc., Natick, Mass; 08-080
# Experiment: BTK IC50 Enzyme Assay (Assay A), microfluidic off-chip mobility shift kinase assay
# Type: biochemical
# Settings: kinKDR peptide substrate, 90 min at 27° C.
# Procedure: BTK IC50 Enzyme Assay (Assay A)
# The following describes a microfluidic, off-chip mobility shift kinase assay used to measure inherent potency of compounds against BTK enzyme.
# 2.5× stocks of full-length human BTK (08-080) from CarnaBio USA, Inc., Natick, Mass., 1.6×ATP and appropriate kinKDR peptide substrate (FITC-AHA-EEPLYWSFPAKKK10 NH2) were prepared in kinase reaction buffer consisting of 25 mM MgCl2, 0.015% Brij-35 (30%), 100 mM Hepes, pH 7.5, and 10 mM DTT.
# 5 uL of enzyme buffer and 7.5 uL of ATP/kinKDR peptide substrate mix were added to Matrix (#115304) 384-well, sterile, polypropylene plates (Thermo Fisher Scientific, 15 Hudson, N.H.) with 125 nL of serially diluted compounds prepared in 100% DMSO, and incubated for 90 min. at 27° C. Following the incubation period, reactions were stopped by adding 60 uL stop buffer consisting of 100 mM Hepes, pH 7.5, 0.015% Brij-35 (30%), 0.277% Coating Reagent #3 (Caliper Life Sciences, Mountain View, Calif.), 5% DMSO. Stopped reactions were monitored at −2 PSI, −3000 V/−700 V in a LabChip 3000 plate 20 reader from Caliper Life Sciences, a PerkinElmer Company (Hopkinton, Mass.), and the activity was measured by off-chip mobility shift assay measuring the charge/mass difference between substrate and product resulting from peptide phosphorilation. IC50 and efficacy were determined by plotting log [Inhibitor] vs. % Activity in GeneData Screener (Basel, Switzerland).
# T1 sequence (Q06187 whole entry): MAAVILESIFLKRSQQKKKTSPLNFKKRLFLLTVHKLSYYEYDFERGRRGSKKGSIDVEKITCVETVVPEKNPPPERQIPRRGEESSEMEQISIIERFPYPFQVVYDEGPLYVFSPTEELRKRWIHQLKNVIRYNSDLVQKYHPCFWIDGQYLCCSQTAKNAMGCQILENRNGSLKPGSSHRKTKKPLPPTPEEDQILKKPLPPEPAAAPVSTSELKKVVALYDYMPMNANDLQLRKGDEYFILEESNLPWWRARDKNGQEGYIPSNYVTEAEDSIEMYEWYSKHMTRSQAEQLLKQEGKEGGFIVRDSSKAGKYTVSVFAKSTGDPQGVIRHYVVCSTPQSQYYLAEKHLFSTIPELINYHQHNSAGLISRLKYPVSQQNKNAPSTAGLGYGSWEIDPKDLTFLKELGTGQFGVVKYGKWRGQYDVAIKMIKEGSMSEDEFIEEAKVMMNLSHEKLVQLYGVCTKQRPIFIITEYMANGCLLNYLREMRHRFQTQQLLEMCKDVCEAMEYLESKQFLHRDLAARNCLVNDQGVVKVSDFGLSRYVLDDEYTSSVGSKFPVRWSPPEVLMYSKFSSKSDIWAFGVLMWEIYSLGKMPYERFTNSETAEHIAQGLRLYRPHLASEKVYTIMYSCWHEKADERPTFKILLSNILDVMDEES
row,Compound,IC50
1,"CN(C)C/C=C/C(=O)N[C@H]1C[C@@H](n2ncc3ncnc(Oc4ccc(Oc5ccccc5)cc4)c32)C1 [Compound 36, (E)-4-(dimethylamino)-N-((1s,3s)-3-(7-(4-phenoxyphenoxy)-1H-pyrazolo[4,3-d]pyrimidin-1-yl)cyclobutyl)but-2-enamide]",100 to 1000 nM
2,"C=CC(=O)N1CCC(Cn2ccc3ncnc(Oc4ccc(Oc5ccccc5)cc4)c32)CC1 [Compound 37, 1-(4-((4-(4-phenoxyphenoxy)-5H-pyrrolo[3,2-d]pyrimidin-5-yl)methyl)piperidin-1-yl)prop-2-en-1-one]",100 to 1000 nM
3,"C/C=C/C(=O)N1CC(n2ccc3ncnc(Oc4ccc(Oc5ccccc5)cc4)c32)C1 [Compound 38, (E)-1-(3-(4-(4-phenoxyphenoxy)-5H-pyrrolo[3,2-d]pyrimidin-5-yl)azetidin-1-yl)but-2-en-1-one]",100 to 1000 nM
4,"C=CC(=O)N[C@H]1CC[C@H](n2ccc3ncnc(Oc4ccc(Oc5ccccc5)cc4)c32)CC1 [Compound 39, N-(trans-4-(4-(4-phenoxyphenoxy)-5H-pyrrolo[3,2-d]pyrimidin-5-yl)cyclohexyl)acrylamide]",100 to 1000 nM
5,"C=CC(=O)N1CCC(Cn2ccc3ncnc(-c4cccc(Oc5ccccc5)c4)c32)C1 (stereo not drawn) [Compound 40, 1-(3-((4-(3-phenoxyphenyl)-5H-pyrrolo[3,2-d]pyrimidin-5-yl)methyl)pyrrolidin-1-yl)prop-2-en-1-one]",100 to 1000 nM
6,"CN(C)C/C=C/C(=O)N[C@H]1C[C@H](n2ncc3ncnc(Oc4ccc(Oc5ccccc5)cc4)c32)C1 [Compound 41, (E)-4-(dimethylamino)-N-((1r,3r)-3-(7-(4-phenoxyphenoxy)-1H-pyrazolo[4,3-d]pyrimidin-1-yl)cyclobutyl)but-2-enamide]",100 to 1000 nM
7,"C=CC(=O)NCCn1ccc2ncnc(Oc3ccc(Oc4ccccc4)cc3)c21 [Compound 42, N-(2-(4-(4-phenoxyphenoxy)-5H-pyrrolo[3,2-d]pyrimidin-5-yl)ethyl)acrylamide]",1000 to 5000 nM
8,"C=CC(=O)N1CC(n2ccc3ncnc(Oc4cnn(Cc5ccccc5)c4)c32)C1 [Compound 43, 1-(3-(4-((1-benzyl-1H-pyrazol-4-yl)oxy)-5H-pyrrolo[3,2-d]pyrimidin-5-yl)azetidin-1-yl)prop-2-en-1-one]",1000 to 5000 nM
9,"C=CC(=O)N1CCCC(Cn2ccc3ncnc(-c4cccc(Oc5ccccc5)c4)c32)C1 (stereo not drawn) [Compound 44, 1-(3-((4-(3-phenoxyphenyl)-5H-pyrrolo[3,2-d]pyrimidin-5-yl)methyl)piperidin-1-yl)prop-2-en-1-one]",1000 to 5000 nM
10,"C=CC(=O)N1CCC(Cn2ccc3ncnc(-c4cccc(Oc5ccccc5)c4)c32)CC1 [Compound 45, 1-(4-((4-(3-phenoxyphenyl)-5H-pyrrolo[3,2-d]pyrimidin-5-yl)methyl)piperidin-1-yl)prop-2-en-1-one]",1000 to 5000 nM
11,"C=CC(=O)N1CCC(Cn2ccc3ncnc(-c4ccc(Oc5ccccc5)cc4)c32)C1 (stereo not drawn) [Compound 46, 1-(3-((4-(4-phenoxyphenyl)-5H-pyrrolo[3,2-d]pyrimidin-5-yl)methyl)pyrrolidin-1-yl)prop-2-en-1-one]",1000 to 5000 nM
12,"C=CC(=O)N1CCC(Cn2ccc3ncnc(-c4ccc(Oc5ccccc5)cc4)c32)CC1 [Compound 47, 1-(4-((4-(4-phenoxyphenyl)-5H-pyrrolo[3,2-d]pyrimidin-5-yl)methyl)piperidin-1-yl)prop-2-en-1-one]",> 5000 nM
13,"C=CC(=O)N1CCCC(Cn2ccc3ncnc(-c4ccc(Oc5ccccc5)cc4)c32)C1 (stereo not drawn) [Compound 48, 1-(3-((4-(4-phenoxyphenyl)-5H-pyrrolo[3,2-d]pyrimidin-5-yl)methyl)piperidin-1-yl)prop-2-en-1-one]",> 5000 nM
14,"CC(C)=CC(=O)N1CC(n2ccc3ncnc(Oc4ccc(Oc5ccccc5)cc4)c32)C1 [Compound 49, 3-methyl-1-(3-(4-(4-phenoxyphenoxy)-5H-pyrrolo[3,2-d]pyrimidin-5-yl)azetidin-1-yl)but-2-en-1-one]",> 5000 nM
15,"C=CC(=O)N1CCC(n2ccc3ncnc(-c4cccc(Oc5ccccc5)c4)c32)CC1 [Compound 50, 1-(4-(4-(3-phenoxyphenyl)-5H-pyrrolo[3,2-d]pyrimidin-5-yl)piperidin-1-yl)prop-2-en-1-one]",> 5000 nM

# Second part, the compound after the results:
row,IC50,Compound
1,> 5000 nM,"C=C(C)C(=O)N1CC(n2ccc3ncnc(Oc4ccc(Oc5ccccc5)cc4)c32)C1 [Compound 51, 2-methyl-1-(3-(4-(4-phenoxyphenoxy)-5H-pyrrolo[3,2-d]pyrimidin-5-yl)azetidin-1-yl)prop-2-en-1-one]"
2,100 to 1000 nM,"C=CC(=O)N1CC(n2ccc3ncc(-c4cnn(Cc5ccccc5)c4)nc32)C1 [Compound 52, 1-(3-(3-(1-benzyl-1H-pyrazol-4-yl)-5H-pyrrolo[2,3-b]pyrazin-5-yl)azetidin-1-yl)prop-2-en-1-one]"
3,1000 to 5000 nM,"CCC/C=C(\C#N)C(=O)N1CCC(n2ccc3ncnc(Oc4ccc(Oc5ccccc5)cc4)c32)CC1 [Compound 55, (E)-2-(4-(4-(4-phenoxyphenoxy)-5H-pyrrolo[3,2-d]pyrimidin-5-yl)piperidine-1-carbonyl)hex-2-enenitrile]"
4,1000 to 5000 nM,"N#CN1CCC(n2ccc3ncnc(Oc4ccc(Oc5ccccc5)cc4)c32)CC1 [Compound 56, 4-(4-(4-phenoxyphenoxy)-5H-pyrrolo[3,2-d]pyrimidin-5-yl)piperidine-1-carbonitrile]"
5,100 to 1000 nM,"N#CNC(=O)N1CCC(n2ccc3ncnc(Oc4ccc(Oc5ccccc5)cc4)c32)CC1 [Compound 57, N-cyano-4-(4-(4-phenoxyphenoxy)-5H-pyrrolo[3,2-d]pyrimidin-5-yl)piperidine-1-carboxamide]"
6,1000 to 5000 nM,"N#CN1CCC(Cn2ccc3ncnc(Oc4ccc(Oc5ccccc5)cc4)c32)C1 (stereo not drawn) [Compound 58, 3-[[4-(4-phenoxyphenoxy)-5H-pyrrolo[3,2-d]pyrimidin-5-yl]methyl]pyrrolidine-1-carbonitrile]"
7,> 5000 nM,"N#CN1CCC(Cn2ccc3ncnc(Oc4ccc(Oc5ccccc5)cc4)c32)CC1 [Compound 59, 4-[[4-(4-phenoxyphenoxy)-5H-pyrrolo[3,2-d]pyrimidin-5-yl]methyl]piperidine-1-carbonitrile]"
8,1000 to 5000 nM,"N#CN1CCCC1Cn1ccc2ncnc(Oc3ccc(Oc4ccccc4)cc3)c21 (stereo not drawn) [Compound 61, 2-[[4-(4-phenoxyphenoxy)-5H-pyrrolo[3,2-d]pyrimidin-5-yl]methyl]pyrrolidine-1-carbonitrile]"
9,1000 to 5000 nM,"N#CN1CCCCC1Cn1ccc2ncnc(Oc3ccc(Oc4ccccc4)cc3)c21 (stereo not drawn) [Compound 62, 2-[[4-(4-phenoxyphenoxy)-5H-pyrrolo[3,2-d]pyrimidin-5-yl]methyl]piperidine-1-carbonitrile]"
10,> 5000 nM,"N#CN1CCCC(Cn2ccc3ncnc(Oc4ccc(Oc5ccccc5)cc4)c32)C1 (stereo not drawn) [Compound 63, 3-[[4-(4-phenoxyphenoxy)-5H-pyrrolo[3,2-d]pyrimidin-5-yl]methyl]piperidine-1-carbonitrile]"
11,100 to 1000 nM,"N#CN1CCCC(n2ccc3ncnc(Oc4ccc(Oc5ccccc5)cc4)c32)C1 (stereo not drawn) [Compound 64, 3-[4-(4-phenoxyphenoxy)-5H-pyrrolo[3,2-d]pyrimidin-5-yl]piperidine-1-carbonitrile]"
12,1000 to 5000 nM,"N#CN1CCC1Cn1ccc2ncnc(Oc3ccc(Oc4ccccc4)cc3)c21 (stereo not drawn) [Compound 65, 2-[[4-(4-phenoxyphenoxy)-5H-pyrrolo[3,2-d]pyrimidin-5-yl]methyl]azetidine-1-carbonitrile]"
